This note sets out measurements from patent US20110094885A1, “Flexible Drug Delivery Chip, its Fabrication Method and Uses Thereof” (NATIONAL CHIAO TUNG UNIVERSITY, priority 2009, published 2011).

The experiment relates to spontaneous SWDs. The experiment in a line: Spontaneous spike-wave discharges (SWDs) in Long-Evans rats. It is filed as in vivo. The settings on record: 0.5 ml, 28 mg/kg, i.p.; vs saline; n=8. The method, then: All rats were kept in a sound-attenuated room under a 12:12 hour light-dark cycle (07:00-19:00 lights on) with food and water provided ad libitum. The experimental procedures were reviewed and approved by the Institutional Animal Care and Use Committee. Briefly, the recording electrodes were implanted under pentobarbital anesthesia (60 mg/kg, i.p.). Subsequently, the rat was placed in a standard stereotaxic apparatus. In total, six stainless steel screws were driven bilaterally into the skull overlying the frontal (A +2.0, L 2.0 with reference to the bregma) and occipital (A −6.0, L 2.0) regions of the cortex to record cortical field potentials. A ground electrode was implanted 2 mm caudal to lambda. Dental cement was applied to fasten the connection socket to the surface of the skull. Following suturing to complete the surgery, animals were given an antibiotic (chlortetracycline) and housed individually in cages for recovery. […] In this preliminary animal test, we compared effect among saline, ethosuximide (ESM), ESM-loaded nanoparticles (ESM-Fe3O4@SiO2) and ESM-containing chip (ESM-Chip) in spontaneous SWDs of Long-Evans rats. […] In this experiment, we recorded 1-hour spontaneous brain activity before the treatment (baseline) and another 1-hour spontaneous brain activity 30 minutes after the treatment. […]

The structures appear in SMILES notation.

Consider `CCC1(C)CC(=O)NC1=O` (centres unmarked) [ESM, ethosuximide], for which the SWD number result is “significantly decreased” and the “total SWD duration” value is “significantly decreased”.
